Tests used:
[1] = compound: CC(=O)c1c(C)c2cnc(Nc3ccc(N4CCNCC4)cn3)nc2n(C2CCCC2)c1=O; experiment: increase in dead-cell fraction, 72 h; higher = more death;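 also: breast cancer cell lines in 384-well plates, stained with Hoechst plus LIVE/DEAD far red dye and imaged, cells above an LDR intensity threshold counted dead, Hoechst-negative corpses included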
[2] = compound: CCc1cnn2c(NCc3ccc[n+]([O-])c3)cc(N3CCCC[C@H]3CCO)nc12; experiment: as above
THZ1 = compound: CN(C)C/C=C/C(=O)Nc1ccc(C(=O)Nc2cccc(Nc3ncc(Cl)c(-c4c[nH]c5ccccc45)n3)c2)cc1 [THZ1]; experiment: as above
LEE011/Ribociclib = compound: CN(C)C(=O)c1cc2cnc(Nc3ccc(N4CCNCC4)cn3)nc2n1C1CCCC1 [LEE011/Ribociclib]; experiment: as above
[3] = compound: CCN1CCN(Cc2ccc(Nc3ncc(F)c(-c4cc(F)c5nc(C)n(C(C)C)c5c4)n3)nc2)CC1; experiment: as above
Neratinib/HKI272 = compound: CCOc1cc2ncc(C#N)c(Nc3ccc(OCc4ccccn4)c(Cl)c3)c2cc1NC(=O)/C=C/CN(C)C [Neratinib/HKI272]; experiment: as above
BSJ-03-123 = compound: CC(=O)c1c(C)c2cnc(Nc3ccc(N4CCN(CCOCCOCCOCCNC(=O)COc5cccc6c5C(=O)N(C5CCC(=O)NC5=O)C6=O)CC4)cn3)nc2n(C2CCCC2)c1=O [BSJ-03-123]; experiment: as above
Flavopiridol = compound: CN1CC[C@H](c2c(O)cc(O)c3c(=O)cc(-c4ccccc4Cl)oc23)[C@H](O)C1 [Flavopiridol]; experiment: as above
Ipatasertib/GDC0068 = compound: CC(C)NC[C@@H](C(=O)N1CCN(c2ncnc3c2[C@H](C)C[C@H]3O)CC1)c1ccc(Cl)cc1 [Ipatasertib/GDC0068]
[4] = compound: COc1ccc2c(c1)[C@]1(C[C@H]1c1ccc3c(/C=C/c4ccc(CN5C[C@@H](C)O[C@@H](C)C5)cc4)n[nH]c3c1)C(=O)N2
AZD7762 = compound: NC(=O)Nc1cc(-c2cccc(F)c2)sc1C(=O)N[C@H]1CCCNC1 [AZD7762]
Tivantinib/ARQ197 = compound: O=C1NC(=O)[C@@H](c2cn3c4c(cccc24)CCC3)[C@@H]1c1c[nH]c2ccccc12 [Tivantinib/ARQ197]
AZD6738 = compound: C[C@@H]1COCCN1c1cc(C2([S@](C)(=N)=O)CC2)nc(-c2cc[nH]c3nccc2-3)n1 [AZD6738]
BSJ-01-175 = compound: CN(C)C/C=C/C(=O)Nc1ccc(O[C@@H]2CCC[C@@H](Nc3ncc(Cl)c(-c4c[nH]c5ccccc45)n3)C2)cc1 [BSJ-01-175]
[5] = compound: CCN1CCN(Cc2ccc(Nc3ncc(F)c(-c4cc(F)c5nc(C)n(C(C)C)c5c4)n3)nc2)CC1
[6] = compound: CCC1=CN=CN=C1N2CCN(CC2)CC3=NC4=C(N3)C=C(C=C4)C(F)(F)F
AZD2014 = compound: CNC(=O)c1cccc(-c2ccc3c(N4CCOC[C@@H]4C)nc(N4CCOC[C@@H]4C)nc3n2)c1 [AZD2014]
Vorinostat = compound: O=C(CCCCCCC(=O)Nc1ccccc1)NO [Vorinostat]
[7] = compound: CC(=O)Nc1cccc(-n2c(=O)n(C3CC3)c(=O)c3c(Nc4ccc(I)cc4F)n(C)c(=O)c(C)c32)c1
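For GR50, 72 h in this document: breast cancer and non-malignant breast epithelial cell lines, Deep Dye Drop or Dye Drop imaging, nine half-log doses, GR normalized to time-zero plates and DMSO-only controls.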

With CAMA1 the “increase in dead-cell fraction” value ([1]; 0.0003162 µM) was -0.0052, the “increase in dead-cell fraction” value ([1]; 0.001 µM) was 0.0045 and the “increase in dead-cell fraction” value ([1]; 0.003162 µM) was -0.006. The “increase in dead-cell fraction” value ([1]; 0.01 µM) was -0.0044, the “increase in dead-cell fraction” value ([1]; 0.03162 µM) was -0.0065 and the “increase in dead-cell fraction” value ([1]; 0.1 µM) was -0.0028. For the same cell line, the “increase in dead-cell fraction” value ([1]; 0.3162 µM) was 0.0013, the “increase in dead-cell fraction” value ([1]; 1 µM) was 0 and the “increase in dead-cell fraction” value ([1]; 3.162 µM) was -0.0024. For the same cell line, the “increase in dead-cell fraction” value ([2]; 0.0001 µM) was -0.0004, the “increase in dead-cell fraction” value ([2]; 0.0003162 µM) was -0.0044 and the “increase in dead-cell fraction” value ([2]; 0.001 µM) was 0.0031. For the same cell line, the “increase in dead-cell fraction” value ([2]; 0.003162 µM) was 0.0113, the “increase in dead-cell fraction” value ([2]; 0.01 µM) was 0.0533 and the “increase in dead-cell fraction” value ([2]; 0.03162 µM) was 0.153. The “increase in dead-cell fraction” value ([2]; 0.1 µM) was 0.46, the “increase in dead-cell fraction” value ([2]; 0.3162 µM) was 0.518 and the “increase in dead-cell fraction” value ([2]; 1 µM) was 0.56. The “increase in dead-cell fraction” value (THZ1; 0.0001 µM) was -0.0002, the “increase in dead-cell fraction” value (THZ1; 0.0003162 µM) was 0.0023 and the “increase in dead-cell fraction” value (THZ1; 0.001 µM) was -0.002. The “increase in dead-cell fraction” value (THZ1; 0.003162 µM) was -0.0017, the “increase in dead-cell fraction” value (THZ1; 0.01 µM) was 0.0023 and the “increase in dead-cell fraction” value (THZ1; 0.03162 µM) was 0.0135. The “increase in dead-cell fraction” value (THZ1; 0.1 µM) was 0.0187, the “increase in dead-cell fraction” value (THZ1; 0.3162 µM) was 0.0397 and the “increase in dead-cell fraction” value (THZ1; 1 µM) was 0.187. For the same cell line, the “increase in dead-cell fraction” value (LEE011/Ribociclib; 0.001 µM) was -0.0064, the “increase in dead-cell fraction” value (LEE011/Ribociclib; 0.003162 µM) was -0.0056 and the “increase in dead-cell fraction” value (LEE011/Ribociclib; 0.01 µM) was -0.0011. The “increase in dead-cell fraction” value (LEE011/Ribociclib; 0.03162 µM) was -0.0009, the “increase in dead-cell fraction” value (LEE011/Ribociclib; 0.1 µM) was 0.006 and the “increase in dead-cell fraction” value (LEE011/Ribociclib; 0.3162 µM) was 0.0058. The “increase in dead-cell fraction” value (LEE011/Ribociclib; 1 µM) was 0.011, the “increase in dead-cell fraction” value (LEE011/Ribociclib; 3.162 µM) was 0.0045 and the “increase in dead-cell fraction” value (LEE011/Ribociclib; 10 µM) was 0.0049. For the same cell line, the “increase in dead-cell fraction” value ([3]; 0.001 µM) was -0.0054, the “increase in dead-cell fraction” value ([3]; 0.003162 µM) was -0.0135 and the “increase in dead-cell fraction” value ([3]; 0.01 µM) was -0.0075. For the same cell line, the “increase in dead-cell fraction” value ([3]; 0.03162 µM) was -0.0084, the “increase in dead-cell fraction” value ([3]; 0.1 µM) was 0.0035 and the “increase in dead-cell fraction” value ([3]; 0.3162 µM) was -0.0078. For the same cell line, the “increase in dead-cell fraction” value ([3]; 1 µM) was -0.0025, the “increase in dead-cell fraction” value ([3]; 3.162 µM) was -0.0084 and the “increase in dead-cell fraction” value ([3]; 10 µM) was 0.0143. For the same cell line, the “increase in dead-cell fraction” value (Neratinib/HKI272; 0.0003162 µM) was 0.0013, the “increase in dead-cell fraction” value (Neratinib/HKI272; 0.001 µM) was 0.0021 and the “increase in dead-cell fraction” value (Neratinib/HKI272; 0.003162 µM) was -0.0002. The “increase in dead-cell fraction” value (Neratinib/HKI272; 0.01 µM) was 0.0022, the “increase in dead-cell fraction” value (Neratinib/HKI272; 0.03162 µM) was 0.0081 and the “increase in dead-cell fraction” value (Neratinib/HKI272; 0.1 µM) was 0.0011. The “increase in dead-cell fraction” value (Neratinib/HKI272; 0.3162 µM) was 0.0067, the “increase in dead-cell fraction” value (Neratinib/HKI272; 1 µM) was 0.0021 and the “increase in dead-cell fraction” value (Neratinib/HKI272; 3.162 µM) was 0.0342. The “increase in dead-cell fraction” value (BSJ-03-123; 0.001 µM) was -0.0067, the “increase in dead-cell fraction” value (BSJ-03-123; 0.003162 µM) was -0.0023 and the “increase in dead-cell fraction” value (BSJ-03-123; 0.01 µM) was 0.0007. The “increase in dead-cell fraction” value (BSJ-03-123; 0.03162 µM) was -0.0025, the “increase in dead-cell fraction” value (BSJ-03-123; 0.1 µM) was 0.0035 and the “increase in dead-cell fraction” value (BSJ-03-123; 0.3162 µM) was -0.0021. For the same cell line, the “increase in dead-cell fraction” value (BSJ-03-123; 1 µM) was 0.0045, the “increase in dead-cell fraction” value (BSJ-03-123; 3.162 µM) was -0.0077 and the “increase in dead-cell fraction” value (BSJ-03-123; 10 µM) was 0.0255. The “increase in dead-cell fraction” value (Flavopiridol; 0.0001 µM) was 0.0013, the “increase in dead-cell fraction” value (Flavopiridol; 0.0003162 µM) was 0.0009 and the “increase in dead-cell fraction” value (Flavopiridol; 0.001 µM) was 0.0022. The “increase in dead-cell fraction” value (Flavopiridol; 0.003162 µM) was 0.0011, the “increase in dead-cell fraction” value (Flavopiridol; 0.01 µM) was 0.0016 and the “increase in dead-cell fraction” value (Flavopiridol; 0.03162 µM) was 0.0052. For the same cell line, the “increase in dead-cell fraction” value (Flavopiridol; 0.1 µM) was 0.0067, the “increase in dead-cell fraction” value (Flavopiridol; 0.3162 µM) was 0.0207 and the “increase in dead-cell fraction” value (Flavopiridol; 1 µM) was 0.107. The “GR50, 72 h” value (Ipatasertib/GDC0068) was 0.341 µM, the “GR50, 72 h” value [4] was 0.00356 µM and the “GR50, 72 h” value (AZD7762) was 0.253 µM. For the same cell line, the “GR50, 72 h” value (Tivantinib/ARQ197) was 0.276 µM, the “GR50, 72 h” value (AZD6738) was 8.16 µM and the “GR50, 72 h” value (BSJ-01-175) was 0.101 µM. The “GR50, 72 h” value [5] was 0.00786 µM, the “GR50, 72 h” value [6] was over 10 µM and the “GR50, 72 h” value (AZD2014) was under 0.001 µM. For the same cell line, the “GR50, 72 h” value (Vorinostat) was 0.884 µM and the “GR50, 72 h” value [7] was over 1 µM.
